Values after ≈ are worked out from the molar mass of the structure shown. Each block holds one compound with its values, some of them ahead of it.
Legend:
mPDE11A4 = mPDE11A4 (Mus musculus, UniProt P0C1Q2); assay: Reversal of aging-like punctate accumulations of EmGFP-mPDE11A4 in HT-22 hippocampal cells; assay type: cell-based; details: HT-22 cells overexpressing EmGFP-mPDE11A4
Description: In vivo, expression of PDE11A4 increases in the hippocampus across the lifespan in humans and rodents, resulting in age-related punctate accumulations of PDE11A4 protein in “ghost axons.” These age-related PDE11A4 accumulations were mimicked by overexpressing mouse PDE11A4 in mouse HT-22 hippocampal cells. FIGS. 31A-31B is an image of HT-22 cells overexpressing EmGFP-mPDE11A4 treated with the vehicle DMSO (FIG. 30A) or 1 uM 25b (FIG. 30B).
See FIGS. 35A and 35B, which show images of HT-22 cells overexpressing EmGFP-mPDE11A4 treated with the vehicle DMSO (35A) or 1 uM 25b (35B).

PDE11A4 = biological target: T1, PDE11A4 (Homo sapiens, UniProt Q9HCR9); assay: In vitro PDE11A4 enzyme inhibition assay (Ba(OH)2 precipitation method); assay type: biochemical; details: for IC50: in vitro
T1 construct: purchased BPS Bioscience
Description: In vitro enzyme assays are conducted via the Ba(OH)2 precipitation method of Wang et al. using commercially-available recombinant PDEs representing all 11 PDE families. Assays for PDE11A inhibition are carried out with both 200 nM cAMP and 100 nM cGMP. Substrate concentrations for the remaining PDEs are 100 nM cGMP (PDE1C), 1 μM cGMP (PDE2A), 30 nM cGMP (PDE3B), 120 nM cAMP (PDE4D), 500 nM cGMP (PDE5A), […] (PDE6C), 15 nM cAMP (PDE7A), 10 nM cAMP (PDE8A), 70 nM cGMP (PDE9A), and 30 nM cAMP (PDE10A).
These compounds were profiled further using additional commercially available analogs and by in vitro ADME characteristics. The synthesis of these analogs is illustrated in the schemes of FIGS. 24-26. […] In the rightmost column of FIG. 27B, percent (%) values refer to percent inhibition, and non-percent values refer to IC50 values.
In vitro enzyme assays were conducted via the Ba(OH)2 precipitation method of Wang et al. using recombinant human PDE3A, PDE4D3, PDE5A, PDE6C, PDE10A1, and PDE11A4 (BPS Bioscience)). Substrate concentrations used were 15 nM cGMP (PDE3A), 18 nM cAMP (PDE3A) 200 nM cAMP (PDE4D3), 500 nM cGMP (PDE5A), 1.7 μM cGMP (PDE6C), 30 nM cAMP (PDE10A), […] (PDE10A), 100 nM cGMP (PDE11A4) and 240 nM cAMP (PDE11A4). […] Inhibitor concentrations of 4, 13.7, 40, 123, 370, 1110, 3330 and 10,000 nM were used. The values reported are means of at least three independent experiments. Substrate concentrations were ~0.1×KM for each enzyme; thus, IC50 values approximate the Ki values.

CYP3A4 = CYP3A4 (Homo sapiens, UniProt P08684); assay: CYP3A4 inhibition (testosterone substrate); assay type: in vitro ADME; details: Example 4 Table 1
Description: (§1) CYP inhibition: Compounds are assessed for their ability to inhibit the three major human cytochrome P450 enzymes, 3A4, 2D6 and 2C9. Expressed enzymes are used to minimize non-specific binding and membrane partitioning issues. The 3A4 assay uses testosterone as a substrate and is analyzed by LC/MS/MS on a Waters TQ instrument using positive or negative electrospray ionization. The 2D6 and 2C9 assays use fluorescent substrates and are analyzed on an Envision Plate Reader.

MDCK cell monolayers = assay: MDCK / MDCK-MDR1 permeability and efflux; assay type: in vitro ADME; details: Example 4 Table 1
Description: MDCK permeability: MDCK cell monolayers (Absorption Systems, Malvern, PA) are grown to confluence on collagen-coated microporous membranes in 12-well assay plates. Assay buffer consists of Hanks' balanced salt solution containing 10 mM HEPES and 15 mM glucose at pH—7.4. The buffer in the receiver chamber also contains 1% bovine serum albumin. Compounds are tested at a final concentration of 5 μM in the assay buffer. Cell monolayers are dosed on the apical side (A-B) or basolateral side (B-A) and incubated at 37° C. with 5% CO2 in a humidified incubator. Samples are taken from the donor and receiver chambers at 120 minutes. Each determination is performed in duplicate. The flux of Lucifer yellow is also measured post-experimentally for each monolayer to ensure no damage is inflicted to the monolayer during flux period. Samples are assayed on a Waters TQ LC/MS/MS using positive or negative electrospray ionization.

CYP2C9 = CYP2C9 (Homo sapiens, UniProt P11712); assay: CYP2C9 inhibition (fluorescent substrate); assay type: in vitro ADME; details: Example 4 Table 1
Description: as §1

[1] = Kinetic aqueous solubility, pH 7.4; assay type: physicochemical; details: aqueous buffer, PBS, Example 4 Table 1
Description: The mixture is agitated at 25° C. for 1 hour, filtered and evaluated by UV and/or LCMSMS analysis. Data are reported as mg/mL and μM concentration.

[2] = Metabolic stability in human liver microsomes; assay type: in vitro ADME
Description: (§2) Metabolic stability: Samples at 37° C. in the presence of human or mouse liver microsomes and NADPH according to standard methods. Aliquots are removed at 5 time points, quenched and analyzed (LCMS/MS and MS/MS as needed) for remaining test compound, along with a positive control. Microsomal protein content is adjusted to give consistent results. Data are reported as half-life and clearance. Assay acceptance criteria is 20% for all standards and 25% for the LLOQ.

[3] = Metabolic stability in mouse liver microsomes; assay type: in vitro ADME
Description: as §2

CYP2D6 = CYP2D6 (Homo sapiens, UniProt P10635); assay: CYP2D6 inhibition (fluorescent substrate); assay type: in vitro ADME; details: Example 4 Table 1
Description: as §1

T1 sequence (Q9HCR9 whole entry): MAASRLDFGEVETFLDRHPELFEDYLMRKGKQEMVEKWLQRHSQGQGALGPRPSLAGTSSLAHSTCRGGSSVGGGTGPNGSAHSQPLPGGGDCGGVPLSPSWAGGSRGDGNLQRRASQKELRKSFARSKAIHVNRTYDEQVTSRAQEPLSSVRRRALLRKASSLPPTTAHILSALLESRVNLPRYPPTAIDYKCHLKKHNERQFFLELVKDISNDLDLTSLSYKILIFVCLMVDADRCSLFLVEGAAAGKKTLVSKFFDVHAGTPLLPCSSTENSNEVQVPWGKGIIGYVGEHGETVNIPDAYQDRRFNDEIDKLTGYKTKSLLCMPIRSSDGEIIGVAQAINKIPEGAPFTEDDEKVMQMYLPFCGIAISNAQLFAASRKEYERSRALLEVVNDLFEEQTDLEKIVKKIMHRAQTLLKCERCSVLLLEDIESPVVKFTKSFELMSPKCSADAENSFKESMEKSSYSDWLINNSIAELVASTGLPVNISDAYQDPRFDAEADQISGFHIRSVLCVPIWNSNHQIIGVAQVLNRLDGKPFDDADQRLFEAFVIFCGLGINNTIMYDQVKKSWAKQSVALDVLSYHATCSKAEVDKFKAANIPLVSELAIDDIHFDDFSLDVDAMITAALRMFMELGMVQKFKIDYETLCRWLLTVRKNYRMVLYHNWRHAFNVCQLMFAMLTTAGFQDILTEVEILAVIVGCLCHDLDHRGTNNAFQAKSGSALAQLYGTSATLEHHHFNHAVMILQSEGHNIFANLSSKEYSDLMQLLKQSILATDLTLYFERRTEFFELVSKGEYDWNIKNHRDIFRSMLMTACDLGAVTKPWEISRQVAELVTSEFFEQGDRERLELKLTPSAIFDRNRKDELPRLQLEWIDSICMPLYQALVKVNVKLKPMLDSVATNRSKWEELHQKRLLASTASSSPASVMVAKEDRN
mPDE11A4, sequence (P0C1Q2 whole entry): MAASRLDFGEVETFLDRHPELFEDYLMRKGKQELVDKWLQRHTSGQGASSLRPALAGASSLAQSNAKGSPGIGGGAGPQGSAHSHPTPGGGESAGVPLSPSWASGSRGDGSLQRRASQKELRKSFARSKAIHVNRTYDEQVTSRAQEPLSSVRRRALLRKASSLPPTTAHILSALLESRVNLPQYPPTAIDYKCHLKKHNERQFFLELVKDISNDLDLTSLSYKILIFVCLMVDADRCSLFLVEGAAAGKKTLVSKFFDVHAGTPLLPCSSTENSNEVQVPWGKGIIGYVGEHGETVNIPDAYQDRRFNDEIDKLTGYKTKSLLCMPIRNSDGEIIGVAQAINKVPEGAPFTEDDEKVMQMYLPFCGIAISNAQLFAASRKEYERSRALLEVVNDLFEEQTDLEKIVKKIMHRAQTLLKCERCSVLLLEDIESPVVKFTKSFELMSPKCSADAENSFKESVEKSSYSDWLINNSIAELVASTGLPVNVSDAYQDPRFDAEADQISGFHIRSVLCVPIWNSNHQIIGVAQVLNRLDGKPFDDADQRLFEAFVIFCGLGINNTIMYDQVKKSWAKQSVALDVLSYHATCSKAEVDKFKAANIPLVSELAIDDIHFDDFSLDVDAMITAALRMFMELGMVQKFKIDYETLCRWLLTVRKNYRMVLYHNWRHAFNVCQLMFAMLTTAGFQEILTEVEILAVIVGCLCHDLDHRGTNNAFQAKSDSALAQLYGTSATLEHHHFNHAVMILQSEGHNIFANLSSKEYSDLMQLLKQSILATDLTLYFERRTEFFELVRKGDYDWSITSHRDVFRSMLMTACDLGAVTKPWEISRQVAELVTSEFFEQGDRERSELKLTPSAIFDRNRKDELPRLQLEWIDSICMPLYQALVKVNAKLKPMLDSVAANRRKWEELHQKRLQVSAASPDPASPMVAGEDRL
CYP3A4, sequence (P08684 whole entry): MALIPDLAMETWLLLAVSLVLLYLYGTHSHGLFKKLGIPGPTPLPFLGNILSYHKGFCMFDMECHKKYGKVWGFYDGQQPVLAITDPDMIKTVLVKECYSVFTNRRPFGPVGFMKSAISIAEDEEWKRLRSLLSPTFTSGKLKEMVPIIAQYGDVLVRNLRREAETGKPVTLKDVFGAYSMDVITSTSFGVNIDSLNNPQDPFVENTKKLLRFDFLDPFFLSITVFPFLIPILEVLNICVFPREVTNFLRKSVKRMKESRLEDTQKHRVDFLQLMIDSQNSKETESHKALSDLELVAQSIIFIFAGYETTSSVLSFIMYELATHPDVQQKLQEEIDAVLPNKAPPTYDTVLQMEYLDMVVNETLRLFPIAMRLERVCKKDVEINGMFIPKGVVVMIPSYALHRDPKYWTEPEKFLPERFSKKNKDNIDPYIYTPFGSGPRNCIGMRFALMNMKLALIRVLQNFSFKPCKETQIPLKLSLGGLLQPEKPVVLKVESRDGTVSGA
CYP2C9, sequence (P11712 whole entry): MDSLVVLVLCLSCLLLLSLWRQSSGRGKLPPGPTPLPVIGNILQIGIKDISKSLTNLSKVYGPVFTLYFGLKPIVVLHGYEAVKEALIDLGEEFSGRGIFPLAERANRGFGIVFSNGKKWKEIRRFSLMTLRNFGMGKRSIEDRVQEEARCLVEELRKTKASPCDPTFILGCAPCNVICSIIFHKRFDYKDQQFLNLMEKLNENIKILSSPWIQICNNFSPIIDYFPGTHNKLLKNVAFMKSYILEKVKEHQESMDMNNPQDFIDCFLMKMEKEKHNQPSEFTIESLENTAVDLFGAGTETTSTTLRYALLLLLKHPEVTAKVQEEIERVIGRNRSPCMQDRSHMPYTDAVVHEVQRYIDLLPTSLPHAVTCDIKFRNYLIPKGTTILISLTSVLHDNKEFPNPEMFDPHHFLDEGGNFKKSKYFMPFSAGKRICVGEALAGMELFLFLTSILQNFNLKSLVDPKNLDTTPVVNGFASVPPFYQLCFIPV
CYP2D6, sequence (P10635 whole entry): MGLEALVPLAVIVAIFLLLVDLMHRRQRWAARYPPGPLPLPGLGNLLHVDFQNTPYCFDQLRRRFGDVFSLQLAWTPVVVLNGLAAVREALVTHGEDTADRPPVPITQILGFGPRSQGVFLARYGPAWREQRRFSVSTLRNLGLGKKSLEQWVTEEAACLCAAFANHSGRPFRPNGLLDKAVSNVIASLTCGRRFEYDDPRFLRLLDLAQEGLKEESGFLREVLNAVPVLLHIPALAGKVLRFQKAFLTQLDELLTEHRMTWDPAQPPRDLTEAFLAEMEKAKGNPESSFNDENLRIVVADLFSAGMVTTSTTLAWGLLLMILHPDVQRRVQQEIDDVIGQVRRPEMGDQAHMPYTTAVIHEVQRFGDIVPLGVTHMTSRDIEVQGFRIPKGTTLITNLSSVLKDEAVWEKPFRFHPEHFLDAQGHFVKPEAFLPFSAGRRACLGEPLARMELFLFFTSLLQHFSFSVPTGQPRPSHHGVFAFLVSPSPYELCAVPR

- IC50 (PDE11A4): 170 nM
Compound: CCn1nccc1-c1cc(-c2nnc(C)s2)c2cnn(-c3ccccc3)c2n1 [Compound 1005]

- IC50 (PDE11A4): 70 nM
Compound: CCn1nccc1-c1cc(-c2nnc(C)o2)c2cnn(-c3ccccc3)c2n1 [Compound 1007]

- IC50 (CYP3A4): 3000 nM
- MDCK1 A:B (MDCK cell monolayers): 0.78
- IC50 (CYP2C9): 4900 nM
- solubility [1]: 54 µM (≈ 21.1 µg/mL)
- microsomal CLint ([2]; Example 4 Table 1, read-out: Human Liver Microsome Clint): > 690 µL/min/mg
- half-life ([2]; Example 4 Table 1, read-out: Human Liver Microsome Stability t½): < 2 min
- microsomal CLint ([3]; Example 4 Table 1, read-out: Mouse Liver Microsome Clint): > 690 µL/min/mg
- half-life ([3]; Example 4 Table 1, read-out: Mouse Liver Microsome Stability t½): < 2 min
- IC50 (CYP2D6): > 10000 nM
Compound: CCN(CC)C(=O)c1cc(-c2cccs2)nc2c1c(C)nn2-c1ccccc1 [Compound 3001]

More lines, now with the values behind:

Compound: CCCSc1nc2c(c(=O)n1-c1ccccc1)SCC2 [BC11-38]
- reversal of aging-like accumulations of mPDE11A4 (mPDE11A4): able to reverse these aging-like accumulations of mPDE11A4

Compound: CCn1nccc1-c1cc(-c2ncc(C)s2)c2cnn(-c3ccccc3)c2n1 [Compound 1001]
- inhibition at 0.5 µM (PDE11A4; @500 nM): 62%

Compound: CCn1nccc1-c1cc(-c2ncc(C)o2)c2cnn(-c3ccccc3)c2n1 [Compound 1003]
- IC50 (PDE11A4): 140 nM

Compound: CN1CC(=O)N2[C@H](c3ccc4c(c3)OCO4)c3[nH]c4ccccc4c3C[C@@H]2C1=O [Tadalafil, tadalafil]
- reversal of aging-like accumulations of mPDE11A4 (mPDE11A4): able to reverse these aging-like accumulations of mPDE11A4

Source: patent publication US20260347351A1, “INHIBITORS OF PDE11A4 AND METHODS OF USING SAME” (UNIVERSITY OF MARYLAND, BALTIMORE, priority 2022, published 2026)
